Laboratory results published in PMC8765781, “A platform of assays for the discovery of anti-Zika small-molecules with activity in a 3D-bioprinted outer-blood-retina model” (PLoS ONE, 2022).
Read-outs that look alike come from different tables or passages of the source.

Columns and labels:
[1] = test system: ZIKV-RLuc (Cambodian strain FSS13025); assay: microbe, parasite or virus in culture; format: cell-based, Zika virus; settings: for AC50: Zika virus, Vero
[2] = test system: Vero cells
[3] = read-out: Log AC50 (M) (converted)

Structure (SMILES) | CC-v2 (curve class classification v2 of the dose response curve) [1] | Efficacy (difference between neutral response and maximum compound response) [1] | Max Resp (difference between neutral response and compound response for highest compound concentration) [1] | AC50 [1] | AC50 [1, 3] | AC50 [2] | Log AC50 (M) [2]
Oc1c(Cl)cc(Cl)c(Cl)c1Cc1c(O)c(Cl)cc(Cl)c1Cl [NCGC00091195-08] | -1.1 | -99.169 | -99.917 | 2.33e-06 M | 2.33e-06 M | 2.33 µM | -5.6327 M
C[C@]12CC[C@@H]3c4ccc(O)cc4CC[C@H]3[C@@H]1CC[C@@H]2O [NCGC00091544-08] | -2.2 | -64.056 | -67.89 | 2.69e-05 M | 2.69e-05 M | 26.9 µM | -4.5699 M
CCCCCCCCCCC(C)(C)C(=O)Nc1c(OC)cc(OC)cc1OC [NCGC00092343-02] | -3 | -55.755 | -44.379 | 3.69e-05 M | 3.69e-05 M | – | -4.4327 M
CCCCCCCCCCCC(CC1OC(=O)C1CCCCCC)OC(=O)C(CC(C)C)NC=O (centres unmarked) [NCGC00095128-04] | -2.1 | -95.825 | -91.668 | 2.93e-05 M | 2.93e-05 M | 29.3 µM | -4.5327 M
O=C1Nc2ccc(Cl)cc2[C@@](C#CC2CC2)(C(F)(F)F)O1 [NCGC00159337-04] | -2.1 | -93.261 | -95.737 | 1.65e-05 M | 1.65e-05 M | 16.5 µM | -4.7827 M
COc1cc([C@@H]2c3cc4c(cc3[C@H](O)[C@H]3COC(=O)[C@@H]23)OCO4)cc(OC)c1OC [NCGC00161923-04] | -1.2 | -67.755 | -62.284 | 2.93e-06 M | 2.93e-06 M | 2.93 µM | -5.5327 M
CCC(=C/[C@H](C)C/C=C/C(C)=C/[C@@H](C)C(=O)[C@@H](C)[C@H](O)[C@@H](C)C/C(C)=C/C(=O)O)/C=C/[C@@H]1OC(=O)C=C[C@@H]1C [NCGC00162440-02] | -1.2 | -71.611 | -66.361 | 4.76e-09 M | 4.76e-09 M | 0.00476 µM | -8.3224 M
CCCCCCCCOc1ccccc1C(=O)Nc1ccc(C(=O)OCC[N+](C)(CC)CC)cc1.[Br-] [NCGC00163507-03] | -2.4 | -66.096 | -65.496 | 2.08e-05 M | 2.08e-05 M | 20.8 µM | -4.6827 M
CS[C@H]1SC[C@@H]2C(=O)N(C)[C@H](C(C)C)C(=O)OC[C@H](NC(=O)c3cnc4ccccc4n3)C(=O)N[C@H](C)C(=O)N(C)[C@H]1C(=O)N(C)[C@H](C(C)C)C(=O)OC[C@H](NC(=O)c1cnc3ccccc3n1)C(=O)N[C@H](C)C(=O)N2C [NCGC00163548-01] | -1.1 | -94.296 | -94.115 | 1.82e-06 M | 1.82e-06 M | 1.82 µM | -5.7408 M
CC(=O)O[C@H]1C(=O)[C@@]2(C)[C@H]([C@H](OC(=O)c3ccccc3)[C@]3(O)C[C@H](OC(=O)[C@H](O)[C@@H](NC(=O)c4ccccc4)c4ccccc4)C(C)=C1C3(C)C)[C@]1(OC(C)=O)CO[C@@H]1C[C@@H]2O [NCGC00164367-10] | -1.2 | -44.84 | -48.24 | 1.39e-07 M | 1.39e-07 M | 0.139 µM | -6.8582 M
CCN(CC)CCOc1ccc(C(=C(Cl)c2ccccc2)c2ccccc2)cc1 [NCGC00164385-05] | -2.1 | -102.171 | -98.776 | 2.33e-05 M | 2.33e-05 M | 23.3 µM | -4.6327 M
C[C@@H]1C[C@H]2C3CCC4=CC(=O)C=C[C@@]4(C)[C@@]3(Cl)[C@@H](O)CC2(C)[C@@]1(OC(=O)c1ccco1)C(=O)CCl (some centres unmarked) [NCGC00164596-01] | -1.1 | -109.905 | -100.212 | 1.04e-05 M | 1.04e-05 M | 10.4 µM | -4.9827 M
